According to patent US20090220507A1, “INHIBITION OF EXTRACELLULAR SIGNAL-REGULATED KINASE 1/2 AS A TREATMENT FOR CARDIAC HYPERTROPHY AND HEART FAILURE” (priority 2005, published 2009):
“Also recorded” adds a separate entry of the source. * marks the point of attachment. Myristoyl = CCCCCCCCCCCCCC(=O)*

How the values were obtained:
[1] = test system: β1-AR-mediated fetal gene expression in NRVMs; assay: RNase protection assay of isoproterenol-induced fetal gene program mRNA in NRVMs; format: cell-based, rat
Procedure: (§1) Materials. Isoproterenol (Sigma) was dissolved in sterile H2O containing 1 mmol/L Ascorbic Acid, and the concentrations used are described in the results section.
(§2) Cell Culture. Neonatal rat cardiac ventricular myocytes (NRVMs) were cultured as previously described (Simpson et al., 1982; Simpson and Savion, 1982; Long et al., 1992; Waspe et al., 1990). Briefly, cells were isolated by trypsin digestion from the ventricles of 1-3 day old rats. Isolation procedures were done in a very gentle manner and cells were plated at a concentration of 1.5×10^5 cells per well in 12-well tissue culture plates in medium containing serum. 24 hours later the media was changed to serum free media containing insulin, transferin, bovine serum albumin, vitamin B12 and penicillin. Wells were pre-coated with a 0.1% gelatin solution and dried in a hood under UV lights. In addition, all media solutions were supplemented with Hepes (pH 7.5) to a final concentration of 20 mmol/L in order to buffer the pH of the media.
(§3) RNase Protection Assay. Total RNA was extracted by TRIZol (Invitrogen) and used in RNase protection assays (RPA). RPAs were performed essentially as described (Patten et al., 1996; Kinugawa et al., 2001). Briefly, 5 μg of total RNA was hybridized against probes specific to skeletal α-actin, SRCA2A, α-MyHC, β-MyHC, ANF, BNP and GAPDH. RNase protection experiments were performed using the RPAII kit (Ambion). RPA experiments were performed from mRNA extracted from a minimum of three different experiments.
as §3, with “RNase Protection Assay: Total RNA” for “RNase Protection Assay. Total RNA”, “al., 1996; Kinuguwa et al.,” for “al., 1996; Kinugawa et al.,”, “protection experiments (RPAs) were performed” for “protection experiments were performed”

[2] = test system: ERK1/2; assay: Western blot of phosphorylated ERK1/2 in isoproterenol-stimulated NRVMs; format: cell-based, rat; conditions: for isoproterenol activation of ERK1/2 (phosphorylation): all time points (5, 30, 60 minutes, 6, 24, 33, 48 hours)
Procedure: as §1, §2
ERK1/2 Western Blots. Phosphorylated ERK1/2 protein extraction was performed essentially as described in Headley et al. (2004).
ERK1/2 activation is dependent on calcineurin and on CaMKII.

[3] = inhibitor 1 hour after ISO treatment, mRNA extracted 48 hours later, RPA
[4] = inhibitor 1 hour before isoproterenol, RPA, mRNA normalized to GAPDH
[5] = inhibitor alone, without isoproterenol

| Molecule | isoproterenol-associated down-regulation (repression) of SRCA2a [1, 4] | isoproterenol-associated down-regulation (repression) of α-MyHC [1, 4] | isoproterenol-associated up-regulation (induction) of ANP [1, 4] | isoproterenol-associated up-regulation of BNP [1, 4] | isoproterenol-associated up-regulation of skeletal α-actin [1, 4] | isoproterenol activation of ERK1/2 (phosphorylation) ([2]; inhibitor pre-treatment) | isoproterenol-induced changes in endogenous mRNA fetal gene program induction (all changes in fetal gene expression) [1, 4] | other results |
| --- | --- | --- | --- | --- | --- | --- | --- | --- |
| N#CC(=C(/N)Sc1ccccc1N)/C(C#N)=C(\N)Sc1ccccc1N [U0126] | does not prevent | blocks; also recorded: prevents | blocks | blocks | blocks | completely abrogates | – | ISO-mediated down-regulation of αMyHC [1, 3]: prevents; ISO-mediated up-regulation of the fetal isoforms (fetal gene expression) [1, 3]: prevents; up-regulation (activation) of β-MyHC in response to isoproterenol stimulation [1, 4]: prevents; ISO-mediated up-regulation of the fetal isoforms ([1]; inhibitor 1 hour prior to ISO treatment, mRNA extracted 48 hours later, RPA): prevents |
| COc1ccc(S(=O)(=O)N(CCO)c2ccccc2CN(C)C/C=C/c2ccc(Cl)cc2)cc1 [KN-93] | not capable of preventing | prevented | prevented | prevented | prevented | – | prevented | ANP mRNA levels [1, 5]: decrease; SRCA2a mRNA levels [1, 5]: decrease; β-MyHC mRNA levels [1, 5]: decrease; activation of ERK1/2 in response to isoproterenol (phosphorylation) ([2]; inhibitor pre-treatment, 33 and 48 hour isoproterenol time points): blocked |
| CC(C)NCC(O)c1ccc(O)c(O)c1 (centres unmarked) [isoproterenol] | – | – | – | – | – | – | – | ERK phosphorylation as a surrogate marker for activation ([2]; isoproterenol stimulation, 5 minutes, 33 hours and 48 hours): increased |
| 14-22 Amide myristoylated (Myristoyl-GRTGRRNAI-NH2; SMILES CCCCCCCCCCCCCC(=O)NCC(=O)N[C@@H](CCCNC(=N)N)C(=O)N[C@H](C(=O)NCC(=O)N[C@@H](CCCNC(=N)N)C(=O)N[C@@H](CCCNC(=N)N)C(=O)N[C@@H](CC(N)=O)C(=O)N[C@@H](C)C(=O)N[C@H](C(N)=O)[C@@H](C)CC)[C@@H](C)O; UniProt P61925 15-23, looked up, fragment) [PKI14-22] | – | – | – | – | – | did not prevent | – | – |
| NCCOB(c1ccccc1)c1ccccc1 [AFB-30, 2-APB] | – | – | – | – | – | – | completely abrogated | – |
